# Experimental data taken from US20110275703A1, “SUBSTITUTED SPIROKETAL DERIVATIVES AND USE THEREOF AS THERAPEUTIC DRUG FOR DIABETES” (CHUGAI SEIYAKU KABUSHIKI KAISHA, priority 2007, published 2011).
# Target: T1, human SGLT1 (Homo sapiens, UniProt P13866)
# T1 construct: expressed in transfected cells; host or cells: CHO-K1
# T1 sequence (P13866 1-664): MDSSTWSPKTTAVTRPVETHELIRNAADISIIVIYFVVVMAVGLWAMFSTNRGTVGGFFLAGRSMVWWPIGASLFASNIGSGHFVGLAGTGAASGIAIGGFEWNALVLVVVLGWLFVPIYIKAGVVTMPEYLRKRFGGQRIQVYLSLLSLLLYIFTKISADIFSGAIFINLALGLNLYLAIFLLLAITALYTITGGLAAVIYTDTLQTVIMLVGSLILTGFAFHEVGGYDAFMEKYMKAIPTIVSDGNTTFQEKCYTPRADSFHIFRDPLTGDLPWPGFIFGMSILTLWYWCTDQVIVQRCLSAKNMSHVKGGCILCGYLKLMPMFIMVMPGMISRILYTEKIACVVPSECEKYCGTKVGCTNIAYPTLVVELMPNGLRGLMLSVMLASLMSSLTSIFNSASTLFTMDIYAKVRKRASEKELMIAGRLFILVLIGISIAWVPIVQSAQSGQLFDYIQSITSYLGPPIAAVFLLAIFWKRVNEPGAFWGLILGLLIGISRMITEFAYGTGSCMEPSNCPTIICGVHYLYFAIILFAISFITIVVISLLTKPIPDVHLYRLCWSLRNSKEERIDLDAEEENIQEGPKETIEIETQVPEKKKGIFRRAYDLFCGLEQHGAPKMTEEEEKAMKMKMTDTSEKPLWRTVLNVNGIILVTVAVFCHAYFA
# Assay: Inhibitory activity against methyl-α-D-glucopyranoside uptake, CHO cells stably expressing human SGLT1
# Format: cell-based
# Conditions: Table 2-2; read-out: hSGLT1 IC50 value
# From the text: Evaluation of inhibitory activity against methyl-α-D-glucopyranoside uptake of human Na^+-glucose cotransporter (SGLT1 and SGLT2)
# 1) Construction of Human SGLT1 Expression Vector
# Human SGLT1 cDNA was amplified by PCR with a cDNA library derived from human small intestine (Clontech) as a template, synthetic DNA primers and KOD+ DNA Polymerase (Toyobo Co., Ltd., Japan). The amplified cDNA was inserted into pcRII-Topo vector by using a Topo TA Cloning Dual Promoter kit (Invitrogen). E. coli competent cells (Invitrogen, TOP10) were transformed with the plasmid vector, cultured in LB medium containing ampicillin (50 mg/L) to grow ampicillin-resistant clones. The plasmid vector containing human SGLT1 cDNA was purified from the clone in a standard manner (see Maniatis et al., Molecular Cloning). Human SGLT1 cDNA added restriction enzyme recognition sites (Eco RI at 5′-end, Hind III at 3′-end) was amplified by PCR with the plasmid vector as a template, synthetic DNA primers containing an additional restriction enzyme recognition site, and KOD+ DNA Polymerase. This amplified cDNA was digested with Eco RI and Hind III and ligated into expression vector pcDNA3.1(−) (Invitrogen) digested with Eco RI and Hind III by a Rapid DNA Ligation kit (Roche Diagonostics). E. coli competent cells (Invitrogen, DH5α) were transformed with the ligated expression vector and grown in ampicillin-containing LB medium. Human SGLT1 expression vector was purified from the ampicillin-resistant clone in a standard manner.
# 3) Establishment of Cell Lines Stably Expressing Human SGLT1 or Human SGLT2
# The human SGLT1 expression vector or the human SGLT2 expression vector was digested with the restriction enzyme Pvu I and transfected into CHO-Kl cells with FuGENE (Roche Diagonostics). After the transfection, the cells were cultured at 37° C. in the presence of 5% CO2 for about 3 weeks in DMEM medium (Gibco) containing penicillin (50 U/mL, SIGMA), streptomycin (50 mg/L, SIGMA), geneticin (200 mg/L, Nacalai Tesque, Inc., Japan) and 20% fetal bovine serum to obtain geneticin-resistant clones. Among these clones, clones stably expressing human SGLT1 or human SGLT2 were selected by the evaluating the sodium-dependent uptake activity of sugar (methyl-α-D-glucopyranoside).
# 4) Evaluation of Inhibitory Activity Against methyl-α-D-glucopyranoside uptake
# Cell lines stably expressing human SGLT1 or human SGLT2 CHO were seeded in 96-well culture plates at a density of 30000 to 40000 cells/well and cultured for 4 to 6 days. The medium in these plates was removed and replaced by 150 μL/well pretreatment buffer (i.e., a buffer containing 140 mM choline chloride, 2 mM potassium chloride, 1 mM calcium chloride, 1 mM magnesium chloride, 10 mM 2-[4-(2-hydroxyethyl)-1-piperazinyl]ethanesulfonic acid and tris(hydroxymethyl)aminomethane, pH 7.4), and the plates were incubated at 37° C. for 20 minutes. The pretreatment buffer in the plates was removed, replaced by 50 μL/well fresh pretreatment buffer, and the plates were incubated at 37° C. for 20 minutes. Methyl-α-D-(U—^14C)glucopyranoside (6.3 mL, Amersham Pharmacia Biotech, 200 mCi/L) was added to and mixed with 100 mL buffer (i.e., a buffer containing 140 mM sodium chloride, 2 mM potassium chloride, 1 mM calcium chloride, 1 mM magnesium chloride, 1 mM methyl-α-D-glucopyranoside, 10 mM [4-(2-hydroxyethyl)-1-piperazinyl]ethanesulfonic acid and tris(hydroxymethyl)aminomethane, pH 7.4), which was used as uptake buffer. Test compounds were dissolved into uptake buffer and these test compound solutions were used for evaluating inhibitory activity. Uptake buffer without a test compound was used as a control solution. Moreover, for use in measuring baseline uptake in the absence of sodium, sodium-free solution was prepared in the same manner to contain 140 mM choline chloride instead of sodium chloride. […]
row,Structure (SMILES),IC50
1,"CC(C)c1ccc(Cc2cc3c(cc2Cl)CO[C@]32O[C@H](CO)[C@@H](O)[C@H](O)[C@H]2O)cc1 [Example 15, (1S,3′R,4′S,5′S,6′R)-5-chloro-3′,4′,5′,6′-tetrahydro-6′-(hydroxymethyl)-6-[(4-isopropylphenyl)methyl]-spiro[isobenzofuran-1(3H),2′-[2H]pyran]-3′,4′,5′-triol]",1010 nM
2,"Cc1cc2c(cc1Cc1ccc(C(C)C)cc1)[C@]1(OC2)O[C@H](CO)[C@@H](O)[C@H](O)[C@H]1O [Example 21, (1S,3′R,4′S,5′S,6′R)-3′,4′,5′,6′-tetrahydro-6′-(hydroxymethyl)-6-[(4-isopropylphenyl)methyl]-5-methyl-spiro[isobenzofuran-1(3H),2′-[2H]pyran]-3′,4′,5′-triol]",682 nM
3,"CCOc1ccc(Cc2cc3c(cc2Cl)CO[C@]32O[C@H](CO)[C@@H](O)[C@H](O)[C@H]2O)cc1 [Example 5, (1S,3′R,4′S,5′S,6′R)-5-chloro-6-[(4-ethoxyphenyl)methyl]-3′,4′,5′,6′-tetrahydro-6′-(hydroxymethyl)-spiro[isobenzofuran-1(3H),2′-[2H]pyran]-3′,4′,5′-triol]",425 nM
4,"CCc1ccc(Cc2cc3c(cc2C)CO[C@]32O[C@H](CO)[C@@H](O)[C@H](O)[C@H]2O)cc1 [Comparative Compound 1, 1,1-anhydro-1-C-[5-(4-ethylphenyl)methyl-2-(hydroxymethyl)-4-methylphenyl]-β-glucopyranose, reference compound]",132 nM
5,"CCc1ccc(Cc2cc3c(cc2Cl)CO[C@]32O[C@H](CO)[C@@H](O)[C@H](O)[C@H]2O)cc1 [Example 1, (1S,3′R,4′S,5′S,6′R)-5-chloro-6-[(4-ethylphenyl)methyl]-3′,4′,5′,6′-tetrahydro-6′-(hydroxymethyl)-spiro[isobenzofuran-1(3H),2′-[2H]pyran]-3′,4′,5′-triol]",201 nM
6,"OC[C@H]1O[C@]2(OCc3cc(Cl)c(Cc4ccc5ccccc5c4)cc32)[C@H](O)[C@@H](O)[C@@H]1O [Example 7, (1S,3′R,4′S,5′S,6′R)-5-chloro-3′,4′,5′,6′-tetrahydro-6′-(hydroxymethyl)-6-(2-naphthylmethyl)-spiro[isobenzofuran-1(3H),2′-[2H]pyran]-3′,4′,5′-triol]",381 nM
7,"OC[C@H]1O[C@]2(OCc3cc(Cl)c(Cc4ccc(CCF)cc4)cc32)[C@H](O)[C@@H](O)[C@@H]1O [Example 8, (1S,3′R,4′S,5′S,6′R)-5-chloro-6-[(4-(2-fluoroethyl)phenyl)methyl]-3′,4′,5′,6′-tetrahydro-6′-(hydroxymethyl)-spiro[isobenzofuran-1(3H),2′-[2H]pyran]-3′,4′,5′-triol]",355 nM
8,"CCCc1ccc(Cc2cc3c(cc2Cl)CO[C@]32O[C@H](CO)[C@@H](O)[C@H](O)[C@H]2O)cc1 [Example 9, (1S,3′R,4′S,5′S,6′R)-5-chloro-3′,4′,5′,6′-tetrahydro-6′-(hydroxymethyl)-6-[(4-propylphenyl)methyl]-spiro[isobenzofuran-1(3H),2′-[2H]pyran]-3′,4′,5′-triol]",1360 nM
